In this experiment the test system is human LINE-1. The experiment is described as follows: Human LINE-1 (L1) retrotransposition dual-luciferase reporter assay in HeLa cells. The conditions noted are these: read-out: Human LINE-1 IC50 (Human L1 activity inhibition). Type of experiment: cell-based. The method, then:
Representative compounds were tested for inhibition of retrotransposition activity of human LINE-1 (L1) retrotransposition reporter assay in HeLa cells according to the following procedure.
Human Cervical Adenocarcinoma Cells (HeLa) were cultured in Dulbecco's Modified Eagle's Medium (DMEM) containing 4500 mg/L glucose, L-glutamine, sodium pyruvate and sodium bicarbonate, supplemented with 10% of heat inactivated fetal bovine serum (FBS). Cells were grown at 37° C. in an atmosphere of 5% CO2. The dual luciferase-encoding plasmid pYX017 was provided by Prof Wenfeng An (Xie, et al., 2011, Nucleic Acids Res).
The reporter assay was performed in 96-well white, optical bottom plates (Thermo Fisher, 165306). 24 hours prior to transfection, HeLa cells were seeded in a density of 2,500 cells per well, in 50 μL of DMEM, 10% FBS media volume. Cells were incubated at 37° C. in an atmosphere of 5% CO2. Seeding was optimized to achieve approximately 30% cell confluency on the day of transfection. A transfection mix was prepared by combining transfection reagent FuGENE® HD (Promega, E2311) and plasmid DNA (100 ng per well) in a 3:1 ratio, in OpiMEM media (Thermo Fisher, 31985062). Next, 5 μL of the transfection mix was combined with 20 μL of DMEM, 10% FBS media, and 25 μL of this mix was added into each well of an assay plate. In each assay plate one column remained untransfected to serve as a blank luminescence signal.
Serial dilution of test compounds was performed in DMSO and transferred to medium. Next, 25 μL of media-diluted compounds series were transferred to an assay plate containing cells and transfection media. The final concentration of DMSO in treated wells was 0.2%. Serial dilutions of compounds were added to an assay plate immediately after transfection. Compounds were tested in triplicates. The assay plate was then incubated with transfection reagent and compounds at 37° C. in an atmosphere of 5% CO2 for 72 hours.
Luciferase reporter activity was quantified with the Dual-Luciferase® Reporter Assay System (Promega) following the manufacturer's manual, with a passive lysis buffer volume increased to 30 μL and lysis incubation time increased to 20 min at room temperature with gentle shaking, to ensure complete cell lysis. Luminescence was measured using a SpectraMax i3×Multi-Mode Microplate Reader, with integration times of 100 ms and 10 ms applied to measure FLuc and RLuc signals, respectively. Relative LNE-1 activity was calculated as Firefly signal/Renilla signal*10,000. In order to determine IC50 values for each compound, dose response data were fit to a logistic using non-linear regression.

Like-named read-outs stand apart in the source and are kept apart here.

As to `Cc1cn([C@H]2C[C@H](N=[N+]=[N-])[C@@H](CO)O2)c(=O)[nH]c1=O` [AZT, zidovudine, reference compound], the concentration for half-maximal inhibition (IC50) (Homo sapiens, HeLa, 72 h) was 630 nM. The same measure, in the same setting: to `Nc1ncnc2c1ncn2CCOCP(=O)(O)O` [Adefovir, reference compound] belongs > 6250 nM; to `Nc1ccn([C@H]2CO[C@@H](CO)S2)c(=O)n1` [Apricitabine, reference compound], 6340 nM; to `C#C[C@@]1(CO)C=C[C@H](n2cc(C)c(=O)[nH]c2=O)O1` [Censavudine, reference compound], 70 nM. Take `O=c1[nH]cnc2c1ncn2[C@H]1CC[C@@H](CO)O1` [Didanosine, reference compound]: the IC50 (Homo sapiens, HeLa, 72 h) is 530 nM.

As for `O=C1Nc2ccc(Cl)cc2[C@@](C#CC2CC2)(C(F)(F)F)O1` [Efavirenz, reference compound], the IC50 (Homo sapiens, HeLa, 72 h) is > 50000 nM.

For the molecule `Nc1nc(=O)n([C@@H]2CS[C@H](CO)O2)cc1F` [Emtricitabine (FTC), Emtricitabine, reference compound], the IC50 (Homo sapiens, HeLa, 72 h) came to 480 nM.

Take `C=C1[C@H](CO)[C@@H](O)C[C@@H]1n1cnc2c(=O)[nH]c(N)nc21` [Entecavir, reference compound]: under “Homo sapiens, HeLa, 72 h”, the IC50 was found to be 1450 nM. Still for that read-out and setting: to `Nc1ccn([C@@H]2CS[C@H](CO)O2)c(=O)n1` [Lamivudine, reference compound] belongs 660 nM; to `Cc1ccnc2c1NC(=O)c1cccnc1N2C1CC1` [Nevirapine, reference compound], > 50000 nM; to `Cc1cn([C@H]2C=C[C@@H](CO)O2)c(=O)[nH]c1=O` [Stavudine, reference compound], 750 nM. On to `CC(C)OC(=O)[C@H](C)N[P@](=O)(CO[C@H](C)Cn1cnc2c(N)ncnc21)Oc1ccccc1` [Tenofovir Alafenamide (TAF), Tenofovir Alafenamide, reference compound], for which the IC50 (Homo sapiens, 72 hours) was determined as 10 nM. On to `CC(C)OC(=O)OCOP(=O)(CO[C@H](C)Cn1cnc2c(N)ncnc21)OCOC(=O)OC(C)C` [Tenofovir Disoproxil, reference compound], for which the IC50 (Homo sapiens, HeLa, 72 h) came out at 190 nM. Regarding `C[C@H](Cn1cnc2c(N)ncnc21)OCP(=O)(O)O` [Tenofovir, reference compound], the IC50 (72 hours) came out at 2700 nM. As for `Nc1ccn([C@H]2CC[C@@H](CO)O2)c(=O)n1` [Zalcitabine, reference compound], the IC50 (Homo sapiens, HeLa, 72 h) was 66 nM. Turning to `C#C[C@]1(CO)O[C@@H](n2cc(C)c(=O)[nH]c2=O)C[C@@H]1O` [compound 2], for the setting “Homo sapiens, HeLa, 72 h”, the IC50 stood at 390 nM.

Take `C#C[C@]1(CO)O[C@@H](n2cc(Br)c(=O)[nH]c2=O)C[C@@H]1O` [compound 4]: the IC50 (Homo sapiens, HeLa, 72 h) was 490 nM.

In the case of `C#C[C@]1(CO)O[C@@H](n2cc(C)c(N)nc2=O)C[C@@H]1O` [compound 6], the IC50 (Homo sapiens, HeLa, 72 h) was 18600 nM.

As to `C#C[C@]1(CO)O[C@@H](n2cnc3c(N)nc(N)nc32)C[C@@H]1O` [compound 12], the IC50 (72 hours) stood at 6.2 nM. Take `CC#C[C@]1(CO)C=C[C@H](n2cc(C)c(=O)[nH]c2=O)O1` [compound 16]: the IC50 (Homo sapiens, HeLa, 72 h) was > 25000 nM. Turning to `C#C[C@@]1(CO)C=C[C@H](n2cc(Br)c(=O)[nH]c2=O)O1` [compound 17], the IC50 (Homo sapiens, HeLa, 72 h) was 910 nM. The same measure, in the same setting: to `C=C[C@@]1(CO)C=C[C@H](n2cc(C)c(=O)[nH]c2=O)O1` [compound 18] belongs 12500 nM. Still for that read-out and setting: to `C#C[C@@]1(CO)C=C[C@H](n2cnc3c(N)nc(F)nc32)O1` [compound 19] belongs > 12500 nM; to `C=C[C@]1(CO)O[C@@H](n2cnc3c(N)nc(F)nc32)C[C@@H]1O` [compound 20, (2R,3S,5R)-5-(6-amino-2-fluoro-9H-purin-9-yl)-2-(hydroxymethyl)-2-vinyltetrahydrofuran-3-ol], 11 nM. Consider `C#C[C@]1(CO)O[C@@H](n2cnc3c(N)nc(N)nc32)C[C@@H]1O` [compound 22], for which, for the setting “72 hours”, the IC50 amounted to 23400 nM.

For `C#C[C@]1(CO)O[C@@H](n2cnc3c(N)ncnc32)C[C@@H]1O` [compound 23], the IC50 (Homo sapiens, HeLa, 72 h) is > 50000 nM.

Regarding `C=C[C@]1(CO)O[C@@H](n2ccc(N)nc2=O)C[C@@H]1O` [compound 24], the IC50 (Homo sapiens, HeLa, 72 h) amounted to 10 nM. On the same count and under the same terms, to `CC[C@]1(CO)O[C@@H](n2cc(C)c(=O)[nH]c2=O)C[C@@H]1O` [compound 26] belongs 2050 nM. Take `CC[C@]1(CO)O[C@@H](n2cnc3c(N)nc(N)nc32)C[C@@H]1O` [compound 27]: the IC50 (72 hours) came out at 2.6 nM.

Values taken from patent US20230293526A1, “METHOD FOR TREATING CANCER WITH A REVERSE TRANSCRIPTASE INHIBITOR” (PrimeFour Therapeutics, Inc., priority 2020, published 2023).
